ChEMBL document CHEMBL5579804, “Synthesis and kinetic evaluation of phosphomimetic inhibitors targeting type B ribose-5-phosphate isomerase from Mycobacterium tuberculosis” (Bioorg Med Chem Lett, 2024)

Legend:
[1] = target: T1, ribose-5-phosphate isomerase (Spinacia oleracea) (UniProt Q8RU73); assay: Competitive inhibition of Spinacia oleracea RPIA assessed as ratio of Km/Ki using D-ribose-5-phosphate as substrate by Cheng-Prusoff equation analysis
T1 sequence (whole entry): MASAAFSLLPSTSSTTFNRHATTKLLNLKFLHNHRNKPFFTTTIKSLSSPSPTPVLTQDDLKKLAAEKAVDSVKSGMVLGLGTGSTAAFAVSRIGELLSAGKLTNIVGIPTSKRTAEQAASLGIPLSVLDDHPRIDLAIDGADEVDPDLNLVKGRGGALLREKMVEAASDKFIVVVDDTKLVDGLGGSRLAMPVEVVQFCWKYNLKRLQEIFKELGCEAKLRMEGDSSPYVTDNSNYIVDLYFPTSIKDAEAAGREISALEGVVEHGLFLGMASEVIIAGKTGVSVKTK

[2] = target: T2, Ribose-5-phosphate isomerase B (Escherichia coli (strain K12)) (UniProt P37351); assay: Competitive inhibition of Escherichia coli RPIB assessed as ratio of Km/Ki using D-ribose-5-phosphate as substrate by Cheng-Prusoff equation analysis
T2 sequence (whole entry): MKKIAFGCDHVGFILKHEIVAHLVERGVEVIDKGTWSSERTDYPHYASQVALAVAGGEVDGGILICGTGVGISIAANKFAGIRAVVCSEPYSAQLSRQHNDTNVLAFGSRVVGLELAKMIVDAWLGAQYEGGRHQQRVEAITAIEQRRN

[3] = target: T3, Ribose-5-phosphate isomerase B (Mycobacterium tuberculosis) (UniProt P9WKD7); assay: Competitive inhibition of Mycobacterium tuberculosis RPIB assessed as ratio of Km/Ki using D-ribose-5-phosphate as substrate by Cheng-Prusoff equation analysis
T3 sequence (whole entry): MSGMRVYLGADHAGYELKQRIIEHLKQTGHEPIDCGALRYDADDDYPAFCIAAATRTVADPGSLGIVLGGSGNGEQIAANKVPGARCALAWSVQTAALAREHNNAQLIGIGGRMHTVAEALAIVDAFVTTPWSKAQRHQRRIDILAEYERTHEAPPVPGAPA

[4] = Selectivity ratio of Km/Ki for Mycobacterium tuberculosis RpiB to Km/Ki for Spinacia oleracea RpiA

Row | SMILES | Ratio [1] | Ratio [2] | Ratio [3] | Selectivity ratio [4]
1 | O=S(=O)(O)CC[C@H]1OC(O)[C@H](O)[C@@H]1O (some centres not stated) | 26 | 9 | 19 | 0.7
2 | O=C(O)[C@H](O)[C@H](O)[C@H](O)COP(=O)(O)O | – | – | – | 4.5
3 | CC(C(C(=O)O)C(=O)O)[C@@H](O)[C@@H](O)[C@@H](O)CCP(=O)(O)O (some centres not stated) | < 4 | – | 26 | > 6.5
4 | O=C(O)C(C[C@H]1OC(O)[C@H](O)[C@@H]1O)C(=O)O (some centres not stated) | 7 | 2 | 6 | 0.8
5 | O=C(O)[C@@H](O)[C@@H](O)[C@@H](O)COP(=O)(O)O (single isomer, unassigned) | 79 | – | 233 | 3
6 | O=S(=O)(O)OC[C@H]1OC(O)[C@H](O)[C@@H]1O (some centres not stated) | 17 | 18 | 53 | 3.1
7 | CC(C(C(=O)O)C(=O)O)[C@@H](O)[C@@H](O)[C@@H](O)CCC(=O)O (some centres not stated) | < 4 | – | 7 | > 1.7
